Reference: PMC8815882, “Screening the pandemic response box identified benzimidazole carbamates, Olorofim and ravuconazole as promising drug candidates for the treatment of eumycetoma” (PLoS Neglected Tropical Diseases, 2022)
Like-named read-outs stand apart in the source and are kept apart here.

Test system: M. mycetomatis genome strain MM55
Assay: CLSI M38-A2 based in vitro susceptibility screening (XTT or resazurin), growth at fixed concentration
Format: cell-based, Madurella mycetomatis
Conditions: Madurella mycetomatis; for Percent fungal survival at 100 µM: replicate 2, read-out: Percentage survival at 100um, 100 uM A (second replicate column)
[1] = mean of replicates, MM55, read-out: Percentage survival at 25um, 25 uM mean
[2] = replicate A, MM55, read-out: Percentage survival at 25um, 25 um A
[3] = replicate B, MM55, read-out: Percentage survival at 25um, 25 uM B
[4] = replicate C, MM55, read-out: Percentage survival at 25um, 25 uM C
[5] = mean of replicates, MM55, read-out: Percentage survival at 100um, 100 uM mean
[6] = replicate 1, MM55, read-out: Percentage survival at 100um, 100 uM A
[7] = replicate 2, MM55, read-out: Percentage survival at 100um, 100 uM A
[8] = replicate 3, MM55, read-out: Percentage survival at 100um, 100 uM A
[9] = mean of three replicates, read-out: Percentage survival at 25um, 25 uM mean
[10] = replicate A, read-out: Percentage survival at 25um, 25 um A
[11] = replicate B, read-out: Percentage survival at 25um, 25 uM B
[12] = replicate C, read-out: Percentage survival at 25um, 25 uM C
[13] = first replicate column, read-out: Percentage survival at 100um, 100 uM A
[14] = mean of three replicates, read-out: Percentage survival at 100um, 100 uM mean
[15] = second replicate column, read-out: Percentage survival at 100um, 100 uM A
[16] = third replicate column, read-out: Percentage survival at 100um, 100 uM A
[17] = replicate 1, read-out: Percentage survival at 100um, 100 uM A (first replicate column)
[18] = replicate 3, read-out: Percentage survival at 100um, 100 uM A (third replicate column)

Row | Structure (SMILES) | activity at 25 µM [1] | activity at 25 µM [2] | activity at 25 µM [3] | activity at 25 µM [4] | activity at 100 µM [5] | activity at 100 µM [6] | activity at 100 µM [7] | activity at 100 µM [8] | activity at 25 µM [9] | activity at 25 µM [10] | activity at 25 µM [11] | activity at 25 µM [12] | activity at 100 µM [13] | activity at 100 µM [14] | activity at 100 µM [15] | activity at 100 µM [16] | also measured
1 | CN(C)CCCNC(=O)c1ccc(-c2cc(O)c3ncccc3c2)cc1 [MMV1580488] | 54.3% | 72% | 76.2% | 14.8% | 9.5% | 10.5% | 5.72% | 12.3% | – | – | – | – | – | – | – | – | –
2 | CC[N+]1(C/C2=C/CCCCCC2)CCC(NC(=O)C2c3cc(Cl)ccc3Oc3ccc(Cl)cc32)CC1 (stereo not drawn) [MMV1580489] | – | – | – | – | – | – | – | – | 93.8% | 90.3% | 102% | 88.6% | -9.19% | -2.01% | -1.42% | 4.58% | –
3 | c1cnc(NCc2ccc(CNc3ncccn3)cc2)nc1 [MMV1580490] | 71% | 53.2% | 76.7% | 83.1% | 66.3% | 67.3% | 32.6% | 98.8% | – | – | – | – | – | – | – | – | –
4 | CCOC(=O)/C=C/[C@H](C[C@@H]1CCNC1=O)NC(=O)[C@@H](CC(=O)[C@@H](NC(=O)c1cc(C)on1)C(C)C)Cc1ccc(F)cc1 [MMV1580491] | – | – | – | – | – | – | – | – | 96.1% | 96.2% | 112% | 79.9% | – | 93.9% | – | – | activity at 100 µM [17]: 99.7%; Percent fungal survival at 100 µM: 86.7%; activity at 100 µM [18]: 95.4%
5 | O=C(/C=C\n1cnc(-c2cc(C(F)(F)F)cc(C(F)(F)F)c2)n1)NNc1ccccn1 [MMV1580493] | – | – | – | – | – | – | – | – | – | 79.7% | 83.9% | 40.3% | – | – | – | – | activity at 25 µM (mean of replicates, read-out: Percentage survival at 25um, 25 uM mean): 67.9%; activity at 100 µM (mean of replicates, read-out: Percentage survival at 100um, 100 uM mean): 77.3%; activity at 100 µM [17]: 119%; Percent fungal survival at 100 µM: 80%; activity at 100 µM [18]: 32.4%
6 | CCC[C@H](NC(=O)[C@@H]1[C@H]2CCC[C@H]2CN1C(=O)[C@@H](NC(=O)[C@@H](NC(=O)c1cnccn1)C1CCCCC1)C(C)(C)C)C(=O)C(=O)NC1CC1 [MMV1580494] | 85.9% | 89.9% | 95.2% | 72.5% | 89.5% | 96.1% | 101% | 71.1% | – | – | – | – | – | – | – | – | –
7 | Nc1cnn(C2OC(CO)C(O)C2O)c(=O)n1 (stereo not drawn) [MMV1580495] | – | – | – | – | – | – | – | – | 87.3% | 82% | 95.9% | 84% | 88.8% | 82% | 84.2% | 72.9% | –
8 | NC(=S)N/N=C/c1ncccc1N [MMV1580496] | 67.8% | 65.1% | 79% | 59.3% | 44.6% | 65.1% | 56.6% | 12% | – | – | – | – | – | – | – | – | –
9 | CC(C)(C)NC(=O)N[C@H](C(=O)N1C[C@H]2[C@@H]([C@H]1C(=O)NC(CC1CCC1)C(=O)C(N)=O)C2(C)C)C(C)(C)C (stereo partly drawn) [MMV1580497] | – | – | – | – | – | – | – | – | 88.1% | 89.4% | 98% | 76.8% | 98.5% | 93.6% | 87.9% | 94.6% | –
10 | O=C(O)C[C@H]1CC[C@H](c2ccc(-c3ccc(Nc4ccc(C(F)(F)F)nc4)cn3)cc2)CC1 [MMV1580498] | 72.2% | 72.4% | 58.9% | 85.2% | 80.6% | 82.3% | 88.6% | 70.8% | – | – | – | – | – | – | – | – | –
11 | COc1ccc(NS(=O)(=O)c2ccc(Cl)s2)cn1 [MMV1580499] | – | – | – | – | – | – | – | – | 85% | 77.6% | 91.2% | 86.3% | 64.6% | 61.8% | 69.9% | 50.9% | –
12 | Cn1c2ccccc2c(=O)c2c(O)cccc21 [MMV1580500] | 65% | 63.1% | 67.8% | 64.2% | 58.6% | 66.8% | 57.2% | 51.8% | – | – | – | – | – | – | – | – | –
